The structures appear in SMILES notation.

T1 sequence (P56817 whole entry): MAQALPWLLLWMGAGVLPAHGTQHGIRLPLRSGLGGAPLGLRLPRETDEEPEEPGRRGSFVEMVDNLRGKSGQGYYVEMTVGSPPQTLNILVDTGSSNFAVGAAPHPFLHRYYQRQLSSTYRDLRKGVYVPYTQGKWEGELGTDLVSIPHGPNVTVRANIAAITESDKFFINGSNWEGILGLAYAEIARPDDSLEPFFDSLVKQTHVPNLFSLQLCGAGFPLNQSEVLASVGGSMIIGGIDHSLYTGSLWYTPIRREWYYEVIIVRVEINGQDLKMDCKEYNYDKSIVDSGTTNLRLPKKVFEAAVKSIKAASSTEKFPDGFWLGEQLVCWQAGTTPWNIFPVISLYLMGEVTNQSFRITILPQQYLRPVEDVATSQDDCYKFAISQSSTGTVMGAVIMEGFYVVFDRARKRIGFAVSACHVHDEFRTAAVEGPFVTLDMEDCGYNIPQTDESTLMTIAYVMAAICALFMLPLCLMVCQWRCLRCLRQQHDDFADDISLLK

The test system of one series is MDR1 (P-gp). Description: Efflux ratio of permeability from basolateral to apical side to apical to basolateral side of dog MDCK cells expressing human MDR1. The class given is ADME, cell-based, Canis lupus familiaris.
Conditions: not given
By efflux ratio is commonly meant the permeability from basolateral to apical divided by that in the opposite direction, in the common usage. Turning to `CC(C)c1cccc(CN[C@H]2CS(=O)(=O)C[C@@H](Cc3ccc(O)c(CO)c3)[C@@H]2O)c1`, the efflux ratio worked out at 17.
Same read-out and setting: to `CCCN1C(=O)OC[C@@H]1Cc1cc(C[C@@H]2CS(=O)(=O)C[C@H](NCc3cccc(C(C)C)c3)[C@H]2O)ccc1O` belongs 19; to `CNC(=O)Oc1ccc(C[C@@H]2CS(=O)(=O)C[C@H](NCc3cccc(C(C)C)c3)[C@H]2O)cc1Br`, 23; to `CC(C)c1cccc(CN[C@H]2CS(=O)(=O)C[C@@H](Cc3ccc(O)c(Br)c3)[C@@H]2O)c1`, 3.
Still for that read-out and setting: for `CC(=O)N[C@@H](Cc1cc(F)cc(F)c1)[C@H](O)CNCc1cccc(C(C)C)c1` the value was 18; for `CC(C)c1cccc(CN[C@H]2CS(=O)(=O)C[C@@H](Cc3cccc(Br)c3)[C@@H]2O)c1` (racemic), 1.4.
Still for that read-out and setting: to `CCCOc1cccc(C[C@@H]2CS(=O)(=O)C[C@H](NCc3cccc(C(C)C)c3)[C@H]2O)c1` (racemic) belongs 1.4; to `CCCc1cc(C[C@@H]2CS(=O)(=O)C[C@H](NCc3cccc(C(C)C)c3)[C@H]2O)ccc1O`, 4.4.
As for `CC(C)c1cccc(CN[C@H]2CS(=O)(=O)C[C@@H](Cc3ccc(O)cc3)[C@@H]2O)c1` (racemic), the efflux ratio came to 4.2.
Still for that read-out and setting: for `CCCCc1cc(C[C@@H]2CS(=O)(=O)C[C@H](NCc3cccc(C(C)C)c3)[C@H]2O)ccc1O` the value was 5.5; for `COc1ccc(C[C@@H]2CS(=O)(=O)C[C@H](NCc3cccc(C(C)C)c3)[C@H]2O)cc1Br`, 2.6; for `CCc1cc(C[C@@H]2CS(=O)(=O)C[C@H](NCc3cccc(C(C)C)c3)[C@H]2O)ccc1O`, 3.1.

The next series relates to MDR1 (P-gp). In words: Permeability from basolateral to apical side in dog MDCK cells expressing human MDR-1 gene. The note with it: read-out: permeability. Format: ADME, cell-based, Canis lupus familiaris.
Regarding `CC(C)c1cccc(CN[C@H]2CS(=O)(=O)C[C@@H](Cc3ccc(O)c(CO)c3)[C@@H]2O)c1`, the Papp B→A came to 30 ×10⁻⁶ cm/s.
On the same count and under the same terms, for `CCCN1C(=O)OC[C@@H]1Cc1cc(C[C@@H]2CS(=O)(=O)C[C@H](NCc3cccc(C(C)C)c3)[C@H]2O)ccc1O` the value was 26 ×10⁻⁶ cm/s.
On the same count and under the same terms, to `CNC(=O)Oc1ccc(C[C@@H]2CS(=O)(=O)C[C@H](NCc3cccc(C(C)C)c3)[C@H]2O)cc1Br` belongs 88 ×10⁻⁶ cm/s.
On the same count and under the same terms, for `CC(C)c1cccc(CN[C@H]2CS(=O)(=O)C[C@@H](Cc3ccc(O)c(Br)c3)[C@@H]2O)c1` the value was 33 ×10⁻⁶ cm/s; for `CC(=O)N[C@@H](Cc1cc(F)cc(F)c1)[C@H](O)CNCc1cccc(C(C)C)c1`, 41 ×10⁻⁶ cm/s; for `CC(C)c1cccc(CN[C@H]2CS(=O)(=O)C[C@@H](Cc3cccc(Br)c3)[C@@H]2O)c1` (racemic), 7.7 ×10⁻⁶ cm/s.
As for `CCCOc1cccc(C[C@@H]2CS(=O)(=O)C[C@H](NCc3cccc(C(C)C)c3)[C@H]2O)c1` (racemic), the Papp B→A was determined as 7.9 ×10⁻⁶ cm/s.
The same measure, in the same setting: to `CCCc1cc(C[C@@H]2CS(=O)(=O)C[C@H](NCc3cccc(C(C)C)c3)[C@H]2O)ccc1O` belongs 18 ×10⁻⁶ cm/s.
The same measure, in the same setting: to `CC(C)c1cccc(CN[C@H]2CS(=O)(=O)C[C@@H](Cc3ccc(O)cc3)[C@@H]2O)c1` (racemic) belongs 37 ×10⁻⁶ cm/s; to `CCCCc1cc(C[C@@H]2CS(=O)(=O)C[C@H](NCc3cccc(C(C)C)c3)[C@H]2O)ccc1O`, 4.2 ×10⁻⁶ cm/s.
Still for that read-out and setting: for `COc1ccc(C[C@@H]2CS(=O)(=O)C[C@H](NCc3cccc(C(C)C)c3)[C@H]2O)cc1Br` the value was 9.7 ×10⁻⁶ cm/s; for `CCc1cc(C[C@@H]2CS(=O)(=O)C[C@H](NCc3cccc(C(C)C)c3)[C@H]2O)ccc1O`, 45 ×10⁻⁶ cm/s.

The test system of a further series is MDR1 (P-gp). Description: Permeability from apical to basolateral side in dog MDCK cells expressing human MDR-1 gene. The class given is ADME, cell-based, Canis lupus familiaris. The note with it: read-out: permeability.
`CC(C)c1cccc(CN[C@H]2CS(=O)(=O)C[C@@H](Cc3ccc(O)c(CO)c3)[C@@H]2O)c1`: the Papp A→B was determined as 1.8 ×10⁻⁶ cm/s.
Still for that read-out and setting: to `CCCN1C(=O)OC[C@@H]1Cc1cc(C[C@@H]2CS(=O)(=O)C[C@H](NCc3cccc(C(C)C)c3)[C@H]2O)ccc1O` belongs 1.4 ×10⁻⁶ cm/s; to `CNC(=O)Oc1ccc(C[C@@H]2CS(=O)(=O)C[C@H](NCc3cccc(C(C)C)c3)[C@H]2O)cc1Br`, 3.8 ×10⁻⁶ cm/s.
On to `CC(C)c1cccc(CN[C@H]2CS(=O)(=O)C[C@@H](Cc3ccc(O)c(Br)c3)[C@@H]2O)c1`, for which the Papp A→B amounted to 11 ×10⁻⁶ cm/s.
The same measure, in the same setting: to `CC(=O)N[C@@H](Cc1cc(F)cc(F)c1)[C@H](O)CNCc1cccc(C(C)C)c1` belongs 2.2 ×10⁻⁶ cm/s.
Turning to `CC(C)c1cccc(CN[C@H]2CS(=O)(=O)C[C@@H](Cc3cccc(Br)c3)[C@@H]2O)c1` (racemic), the Papp A→B was determined as 5.4 ×10⁻⁶ cm/s.
The same measure, in the same setting: for `CCCOc1cccc(C[C@@H]2CS(=O)(=O)C[C@H](NCc3cccc(C(C)C)c3)[C@H]2O)c1` (racemic) the value was 5.7 ×10⁻⁶ cm/s; for `CCCc1cc(C[C@@H]2CS(=O)(=O)C[C@H](NCc3cccc(C(C)C)c3)[C@H]2O)ccc1O`, 4.2 ×10⁻⁶ cm/s; for `CC(C)c1cccc(CN[C@H]2CS(=O)(=O)C[C@@H](Cc3ccc(O)cc3)[C@@H]2O)c1` (racemic), 9 ×10⁻⁶ cm/s.
On the same count and under the same terms, to `CCCCc1cc(C[C@@H]2CS(=O)(=O)C[C@H](NCc3cccc(C(C)C)c3)[C@H]2O)ccc1O` belongs 0.8 ×10⁻⁶ cm/s; to `COc1ccc(C[C@@H]2CS(=O)(=O)C[C@H](NCc3cccc(C(C)C)c3)[C@H]2O)cc1Br`, 3.7 ×10⁻⁶ cm/s.
Take `CCc1cc(C[C@@H]2CS(=O)(=O)C[C@H](NCc3cccc(C(C)C)c3)[C@H]2O)ccc1O`: the Papp A→B was 15 ×10⁻⁶ cm/s.

Test system in another series: not listed separately
In words: Metabolic stability in rat liver microsomes assessed as half life.
Conditions: not given
The class given is ADME, Microsome. On the technique in general: Liver microsomes are a subcellular fraction often used to study metabolism.
The term half-life denotes how long it takes for the measured level to halve. With `CCCN1C(=O)OC[C@@H]1Cc1cc(C[C@@H]2CS(=O)(=O)C[C@H](NCc3cccc(C(C)C)c3)[C@H]2O)ccc1O`, the half-life is 4 min.
On the same count and under the same terms, to `CC(C)c1cccc(CN[C@H]2CS(=O)(=O)C[C@@H](Cc3ccc(O)c(Br)c3)[C@@H]2O)c1` belongs 3 min.

Another series concerns the target T1, Beta-secretase 1 (Homo sapiens, UniProt P56817). In words: Inhibition of human BACE-1-mediated amyloid beta 40 release in APP-transfected […] cells. Format: cell-based.
Conditions: not given
Usually IC50 stands for the concentration that inhibits the measured activity by half. Low readings indicate inhibition by little substance, high ones a need for much substance. As for `CC(C)c1cccc(CN[C@H]2CS(=O)(=O)C[C@@H](Cc3ccc(O)c(Br)c3)[C@@H]2O)c1`, the IC50 was found to be 1500 nM.

A further series deals with Plasma. Description: Drug level in plasma of mouse at 2 umol/kg, iv. Format: ADME. The note with it: read-out: Drug uptake.
`CCCN1C(=O)OC[C@@H]1Cc1cc(C[C@@H]2CS(=O)(=O)C[C@H](NCc3cccc(C(C)C)c3)[C@H]2O)ccc1O`: the concentration was 670 nM.
The same measure, in the same setting: for `CC(C)c1cccc(CN[C@H]2CS(=O)(=O)C[C@@H](Cc3ccc(O)c(Br)c3)[C@@H]2O)c1` the value was 1030 nM.

The species entered for a further series is Homo sapiens. In words: Selectivity ratio of IC50 for human cathepsin D to IC50 for human BACE-1.
Conditions: not given
On to `CC(C)c1cccc(CN[C@H]2CS(=O)(=O)C[C@@H](Cc3ccc(O)c(Br)c3)[C@@H]2O)c1`, for which the Ratio IC50 came out at 10.

A further series concerns the target T1, Beta-secretase 1. In words: Inhibition of human BACE-1.
Conditions: not given
Take `CC(C)c1cccc(CN[C@H]2CS(=O)(=O)C[C@@H](Cc3ccc(O)c(CO)c3)[C@@H]2O)c1`: the IC50 is 1200 nM. This lies in the single-digit micromolar range.
On the same count and under the same terms, to `CNC(=O)Oc1ccc(C[C@@H]2CS(=O)(=O)C[C@H](NCc3cccc(C(C)C)c3)[C@H]2O)cc1Br` belongs 60 nM.
The same measure, in the same setting: to `CC(C)c1cccc(CN[C@H]2CS(=O)(=O)C[C@@H](Cc3ccc(O)c(Br)c3)[C@@H]2O)c1` belongs 300 nM.
For the molecule `CC(=O)N[C@@H](Cc1cc(F)cc(F)c1)[C@H](O)CNCc1cccc(C(C)C)c1`, the concentration for half-maximal inhibition (IC50) worked out at 3200 nM.
Same read-out and setting: to `CC(C)c1cccc(CN[C@H]2CS(=O)(=O)C[C@@H](Cc3cccc(Br)c3)[C@@H]2O)c1` (racemic) belongs 760 nM; to `CCCOc1cccc(C[C@@H]2CS(=O)(=O)C[C@H](NCc3cccc(C(C)C)c3)[C@H]2O)c1` (racemic), 2300 nM.
On the same count and under the same terms, for `CCCc1cc(C[C@@H]2CS(=O)(=O)C[C@H](NCc3cccc(C(C)C)c3)[C@H]2O)ccc1O` the value was 190 nM; for `CC(C)c1cccc(CN[C@H]2CS(=O)(=O)C[C@@H](Cc3ccc(O)cc3)[C@@H]2O)c1` (racemic), 1800 nM; for `CCCCc1cc(C[C@@H]2CS(=O)(=O)C[C@H](NCc3cccc(C(C)C)c3)[C@H]2O)ccc1O`, 150 nM.
Still for that read-out and setting: to `COc1ccc(C[C@@H]2CS(=O)(=O)C[C@H](NCc3cccc(C(C)C)c3)[C@H]2O)cc1Br` belongs 2800 nM; to `CCc1cc(C[C@@H]2CS(=O)(=O)C[C@H](NCc3cccc(C(C)C)c3)[C@H]2O)ccc1O`, 370 nM.

In a further series the target is Cathepsin D (Homo sapiens, UniProt P07339). Description: Inhibition of human cathepsin D.
Cathepsin D, sequence (P07339 65-162 limits assumed): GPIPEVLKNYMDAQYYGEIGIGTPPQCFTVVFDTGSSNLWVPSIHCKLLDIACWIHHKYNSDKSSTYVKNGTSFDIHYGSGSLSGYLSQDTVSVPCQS
Cathepsin D, sequence (P07339 169-412 limits assumed): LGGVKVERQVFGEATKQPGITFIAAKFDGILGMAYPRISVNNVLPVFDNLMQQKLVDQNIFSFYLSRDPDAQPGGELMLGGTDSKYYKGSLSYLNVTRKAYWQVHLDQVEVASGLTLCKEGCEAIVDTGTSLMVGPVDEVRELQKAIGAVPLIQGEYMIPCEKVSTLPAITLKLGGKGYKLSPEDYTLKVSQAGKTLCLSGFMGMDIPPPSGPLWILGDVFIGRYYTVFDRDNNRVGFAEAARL
Conditions: not given
Turning to `CC(C)c1cccc(CN[C@H]2CS(=O)(=O)C[C@@H](Cc3ccc(O)c(CO)c3)[C@@H]2O)c1`, the half-inhibitory concentration (IC50) came out at 2100 nM.
Take `CCCN1C(=O)OC[C@@H]1Cc1cc(C[C@@H]2CS(=O)(=O)C[C@H](NCc3cccc(C(C)C)c3)[C@H]2O)ccc1O`: the IC50 was found to be 6400 nM.
With `CNC(=O)Oc1ccc(C[C@@H]2CS(=O)(=O)C[C@H](NCc3cccc(C(C)C)c3)[C@H]2O)cc1Br`, the IC50 is 370 nM.
Still for that read-out and setting: for `CC(C)c1cccc(CN[C@H]2CS(=O)(=O)C[C@@H](Cc3ccc(O)c(Br)c3)[C@@H]2O)c1` the value was 1200 nM.
On the same count and under the same terms, for `CC(=O)N[C@@H](Cc1cc(F)cc(F)c1)[C@H](O)CNCc1cccc(C(C)C)c1` the value was 4700 nM; for `CC(C)c1cccc(CN[C@H]2CS(=O)(=O)C[C@@H](Cc3cccc(Br)c3)[C@@H]2O)c1` (racemic), 2300 nM; for `CCCOc1cccc(C[C@@H]2CS(=O)(=O)C[C@H](NCc3cccc(C(C)C)c3)[C@H]2O)c1` (racemic), 2000 nM.
The same measure, in the same setting: to `CCCc1cc(C[C@@H]2CS(=O)(=O)C[C@H](NCc3cccc(C(C)C)c3)[C@H]2O)ccc1O` belongs 1800 nM.
With `CC(C)c1cccc(CN[C@H]2CS(=O)(=O)C[C@@H](Cc3ccc(O)cc3)[C@@H]2O)c1` (racemic), inhibition was half-maximal at 5400 nM (IC50).
`CCCCc1cc(C[C@@H]2CS(=O)(=O)C[C@H](NCc3cccc(C(C)C)c3)[C@H]2O)ccc1O` had an IC50 of 1900 nM.
On the same count and under the same terms, to `COc1ccc(C[C@@H]2CS(=O)(=O)C[C@H](NCc3cccc(C(C)C)c3)[C@H]2O)cc1Br` belongs 2400 nM; to `CCc1cc(C[C@@H]2CS(=O)(=O)C[C@H](NCc3cccc(C(C)C)c3)[C@H]2O)ccc1O`, 2400 nM.

The subject of a further series is Brain. In words: Drug level in brain of mouse at 2 umol/kg, iv. Format: ADME, organism-based. To be noted: in vivo, read-out: Drug uptake.
Regarding `CCCN1C(=O)OC[C@@H]1Cc1cc(C[C@@H]2CS(=O)(=O)C[C@H](NCc3cccc(C(C)C)c3)[C@H]2O)ccc1O`, the concentration is < 50 nM.
Take `CC(C)c1cccc(CN[C@H]2CS(=O)(=O)C[C@@H](Cc3ccc(O)c(Br)c3)[C@@H]2O)c1`: the concentration stood at 210 nM.
